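1) Cells in 96-well plates. 2) Compound, 48 h, 5 concentrations. 3) Linear interpolation between surrounding doses. 4) Unreached endpoint = highest concentration. GI50 = concentration required for 50% inhibition of growth.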 Active and inactive are the calls of the source. Cut-off read from the data, not from the text of the source: active = GI50 up to about 1.1 µM and inactive = higher.
Experiments:
Assay in all cases: DTP human tumour cell line panel, 48 h
786-0 = system: 786-0
A498 = system: A498
A549 = system: A549
ACHN = system: ACHN
BT-549 = system: BT-549
CAKI-1 = system: CAKI-1
CCRF-CEM = system: CCRF-CEM
COLO 205 = system: COLO 205
DU-145 = system: DU-145
EKVX = system: EKVX
HCC 2998 = system: HCC 2998
HCT-116 = system: HCT-116
HCT-15 = system: HCT-15
HL-60 = system: HL-60
HOP-62 = system: HOP-62
HOP-92 = system: HOP-92
HT-29 = system: HT-29
Hs-578T = system: Hs-578T
IGROV-1 = system: IGROV-1
KM12 = system: KM12
LOX IMVI = system: LOX IMVI
M14 = system: M14
MCF7 = system: MCF7
MDA-MB-231 = system: MDA-MB-231
MDA-MB-435 = system: MDA-MB-435
MDA-N = system: MDA-N
MOLT-4 = system: MOLT-4
Malme-3M = system: Malme-3M
NCI-H226 = system: NCI-H226
NCI-H23 = system: NCI-H23
NCI-H460 = system: NCI-H460
NCI-H522 = system: NCI-H522
NCI/ADR-RES = system: NCI/ADR-RES
OVCAR-3 = system: OVCAR-3
OVCAR-4 = system: OVCAR-4
OVCAR-5 = system: OVCAR-5
OVCAR-8 = system: OVCAR-8
PC-3 = system: PC-3
RXF 393 = system: RXF 393
SF-268 = system: SF-268
SF-295 = system: SF-295
SF-539 = system: SF-539
SK-MEL-28 = system: SK-MEL-28
SK-MEL-2 = system: SK-MEL-2
SK-MEL-5 = system: SK-MEL-5
SN12C = system: SN12C
SNB-19 = system: SNB-19
SNB-75 = system: SNB-75
SR = system: SR
SW-620 = system: SW-620
T47D = system: T47D
TK-10 = system: TK-10
U-251 = system: U-251
UACC-257 = system: UACC-257
UACC-62 = system: UACC-62
UO-31 = system: UO-31
K562 = system: K562
RPMI-8226 = system: RPMI-8226
SK-OV-3 = system: SK-OV-3

CC(=O)Nc1ccc(C(O)/C(=N/N)c2nc3ccc(Cl)cc3nc2O)cc1 (stereo not given)
GI50 (786-0): > 100 µM (inactive)
GI50 (A498): > 100 µM (inactive)
GI50 (A549): > 100 µM (inactive)
GI50 (ACHN): > 100 µM (inactive)
GI50 (BT-549): > 100 µM (inactive)
GI50 (CAKI-1): > 100 µM (inactive)
GI50 (CCRF-CEM): > 100 µM (inactive)
GI50 (COLO 205): > 100 µM (inactive)
GI50 (DU-145): > 100 µM (inactive)
GI50 (EKVX): > 100 µM (inactive)
GI50 (HCC 2998): > 100 µM (inactive)
GI50 (HCT-116): > 100 µM (inactive)
GI50 (HCT-15): > 100 µM
GI50 (HL-60): > 100 µM (inactive)
GI50 (HOP-62): > 100 µM (inactive)
GI50 (HOP-92): > 100 µM (inactive)
GI50 (HT-29): > 100 µM (inactive)
GI50 (Hs-578T): > 100 µM (inactive)
GI50 (IGROV-1): > 100 µM (inactive)
GI50 (KM12): > 100 µM (inactive)
GI50 (LOX IMVI): > 100 µM (inactive)
GI50 (M14): > 100 µM (inactive)
GI50 (MCF7): > 100 µM (inactive)
GI50 (MDA-MB-231): > 100 µM (inactive)
GI50 (MDA-MB-435): > 100 µM (inactive)
GI50 (MDA-N): > 100 µM (inactive)
GI50 (MOLT-4): > 100 µM (inactive)
GI50 (Malme-3M): > 100 µM (inactive)
GI50 (NCI-H226): > 100 µM (inactive)
GI50 (NCI-H23): > 100 µM (inactive)
GI50 (NCI-H460): > 100 µM (inactive)
GI50 (NCI-H522): > 100 µM (inactive)
GI50 (NCI/ADR-RES): > 100 µM (inactive)
GI50 (OVCAR-3): > 100 µM (inactive)
GI50 (OVCAR-4): > 100 µM (inactive)
GI50 (OVCAR-5): > 100 µM (inactive)
GI50 (OVCAR-8): > 100 µM (inactive)
GI50 (PC-3): > 100 µM (inactive)
GI50 (RXF 393): > 100 µM (inactive)
GI50 (SF-268): > 100 µM (inactive)
GI50 (SF-295): > 100 µM (inactive)
GI50 (SF-539): > 100 µM (inactive)
GI50 (SK-MEL-28): > 100 µM (inactive)
GI50 (SK-MEL-2): > 100 µM (inactive)
GI50 (SK-MEL-5): > 100 µM (inactive)
GI50 (SN12C): > 100 µM (inactive)
GI50 (SNB-19): > 100 µM (inactive)
GI50 (SNB-75): > 100 µM (inactive)
GI50 (SR): > 100 µM (inactive)
GI50 (SW-620): > 100 µM (inactive)
GI50 (T47D): > 100 µM (inactive)
GI50 (TK-10): > 100 µM (inactive)
GI50 (U-251): > 100 µM (inactive)
GI50 (UACC-257): > 100 µM (inactive)
GI50 (UACC-62): > 100 µM (inactive)
GI50 (UO-31): > 100 µM (inactive)

CN1CCC2(c3ccccc3)CC(=O)/C(=C/c3ccc(Cl)c(Cl)c3)C1C2.[O-][Cl+3]([O-])([O-])O (stereo not given)
GI50 (786-0): 2.37 µM (inactive)
GI50 (A498): 5.2 µM (inactive)
GI50 (A549): 3.4 µM (inactive)
GI50 (ACHN): 1.77 µM (inactive)
GI50 (BT-549): 2.72 µM (inactive)
GI50 (CAKI-1): 3.94 µM (inactive)
GI50 (CCRF-CEM): 2.02 µM (inactive)
GI50 (COLO 205): 1.95 µM (inactive)
GI50 (DU-145): 3.25 µM (inactive)
GI50 (EKVX): 2.94 µM (inactive)
GI50 (HCT-116): 2.62 µM (inactive)
GI50 (HCT-15): 2.14 µM
GI50 (HL-60): 0.333 µM (active)
GI50 (HOP-62): 3.37 µM (inactive)
GI50 (HOP-92): 2.31 µM (inactive)
GI50 (HT-29): 1.95 µM (inactive)
GI50 (Hs-578T): 4.47 µM (inactive)
GI50 (IGROV-1): 1.95 µM (inactive)
GI50 (K562): 2.52 µM (inactive)
GI50 (KM12): 1.94 µM (inactive)
GI50 (LOX IMVI): 1.71 µM (inactive)
GI50 (M14): 2.96 µM (inactive)
GI50 (MCF7): 3.4 µM (inactive)
GI50 (MDA-MB-231): 1.69 µM (inactive)
GI50 (MDA-MB-435): 2.11 µM (inactive)
GI50 (MDA-N): 4.42 µM (inactive)
GI50 (MOLT-4): 2.6 µM (inactive)
GI50 (Malme-3M): 11.5 µM (inactive)
GI50 (NCI-H226): 2.09 µM (inactive)
GI50 (NCI-H23): 2.86 µM (inactive)
GI50 (NCI-H460): 2.35 µM (inactive)
GI50 (NCI-H522): 1.84 µM (inactive)
GI50 (NCI/ADR-RES): 2.78 µM (inactive)
GI50 (OVCAR-3): 2.9 µM (inactive)
GI50 (OVCAR-4): 2.51 µM (inactive)
GI50 (OVCAR-5): 2.35 µM (inactive)
GI50 (OVCAR-8): 2.21 µM (inactive)
GI50 (PC-3): 1.96 µM (inactive)
GI50 (RPMI-8226): 2.29 µM (inactive)
GI50 (RXF 393): 2.61 µM (inactive)
GI50 (SF-268): 1.86 µM (inactive)
GI50 (SF-295): 2.43 µM (inactive)
GI50 (SF-539): 1.98 µM (inactive)
GI50 (SK-MEL-28): 2.1 µM (inactive)
GI50 (SK-MEL-2): 3.74 µM (inactive)
GI50 (SK-MEL-5): 2.6 µM (inactive)
GI50 (SK-OV-3): 4.05 µM (inactive)
GI50 (SN12C): 1.85 µM (inactive)
GI50 (SNB-19): 2.3 µM (inactive)
GI50 (SNB-75): 3.41 µM (inactive)
GI50 (SR): 0.968 µM (active)
GI50 (SW-620): 2.59 µM (inactive)
GI50 (T47D): 4.7 µM (inactive)
GI50 (TK-10): 3.71 µM (inactive)
GI50 (U-251): 1.82 µM (inactive)
GI50 (UACC-257): 9.46 µM (inactive)
GI50 (UACC-62): 1.51 µM (inactive)
GI50 (UO-31): 1.95 µM (inactive)

O=C(c1ccccc1)c1ccc2[nH]c(-c3c(Cl)c(Cl)c(Cl)c(Cl)c3-c3nnc(-c4ccccc4)o3)nc2c1
GI50 (786-0): 36.6 µM (inactive)
GI50 (A498): 12.1 µM (inactive)
GI50 (A549): 25.8 µM (inactive)
GI50 (ACHN): 69.7 µM (inactive)
GI50 (BT-549): 46 µM (inactive)
GI50 (CAKI-1): 40.4 µM (inactive)
GI50 (CCRF-CEM): 46.3 µM (inactive)
GI50 (COLO 205): 18.3 µM (inactive)
GI50 (DU-145): 70.5 µM (inactive)
GI50 (EKVX): 54.1 µM (inactive)
GI50 (HCT-116): 27.4 µM (inactive)
GI50 (HCT-15): 7.01 µM
GI50 (HL-60): 11.5 µM (inactive)
GI50 (HOP-62): 25.8 µM (inactive)
GI50 (HOP-92): 35.7 µM (inactive)
GI50 (HT-29): 31.3 µM (inactive)
GI50 (Hs-578T): 27.4 µM (inactive)
GI50 (IGROV-1): 29.5 µM (inactive)
GI50 (K562): 4.67 µM (inactive)
GI50 (KM12): 22.3 µM (inactive)
GI50 (LOX IMVI): 39.4 µM (inactive)
GI50 (M14): 28.2 µM (inactive)
GI50 (MCF7): 9.79 µM (inactive)
GI50 (MDA-MB-231): 25.4 µM (inactive)
GI50 (MDA-MB-435): 3.51 µM (inactive)
GI50 (MDA-N): 3.45 µM (inactive)
GI50 (MOLT-4): 14.8 µM (inactive)
GI50 (Malme-3M): 17.9 µM (inactive)
GI50 (NCI-H226): 22.8 µM (inactive)
GI50 (NCI-H23): 31.7 µM (inactive)
GI50 (NCI-H522): 6.28 µM (inactive)
GI50 (NCI/ADR-RES): 13.2 µM (inactive)
GI50 (OVCAR-3): 13.8 µM (inactive)
GI50 (OVCAR-4): 20.7 µM (inactive)
GI50 (OVCAR-5): 67.5 µM (inactive)
GI50 (OVCAR-8): 58.1 µM (inactive)
GI50 (PC-3): 20.7 µM (inactive)
GI50 (RPMI-8226): 12.4 µM (inactive)
GI50 (RXF 393): 5.47 µM (inactive)
GI50 (SF-268): 31.4 µM (inactive)
GI50 (SF-295): 14.1 µM (inactive)
GI50 (SF-539): 19.4 µM (inactive)
GI50 (SK-MEL-28): > 100 µM (inactive)
GI50 (SK-MEL-2): 20 µM (inactive)
GI50 (SK-MEL-5): 6.7 µM (inactive)
GI50 (SK-OV-3): 50.8 µM (inactive)
GI50 (SN12C): 22.4 µM (inactive)
GI50 (SNB-19): 56.9 µM (inactive)
GI50 (SNB-75): 8.81 µM (inactive)
GI50 (SR): 4.06 µM (inactive)
GI50 (SW-620): 29.7 µM (inactive)
GI50 (T47D): 23.9 µM (inactive)
GI50 (TK-10): 51.1 µM (inactive)
GI50 (U-251): 31.6 µM (inactive)
GI50 (UACC-257): 80.2 µM (inactive)
GI50 (UO-31): 49.3 µM (inactive)

— ChEMBL document CHEMBL1201862, “PubChem BioAssay data set” (2004)
